Measured values from article PMC12236907, “A Natural Depsipeptide Antibiotic that Targets the E site of the Bacterial Ribosome” (Research Square, 2025).
Entries after “also recorded” stand apart in the source; their conditions may differ. Where a SMILES comes first, the peptide text is derived from it. Bridges are numbered along the chain shown (N, C = ends). [ ]: non-standard residue; d: D form. dOrn = NCCC[C@@H](N)C(=O)O

System: bacterial ribosome
Test: Toeprinting analysis of MKM-induced ribosome stalling
Format: biochemical, E. coli
Protocol: Toeprinting analysis was carried out in the E. coli in vitro transcription-translation system assembled from the purified components (PURExpress, NEB). Toeprinting was carried out using either ^32P-radiolabeled or fluorescently labeled reverse transcription primers, following the procedures described previously[21],[26],[27].
Reactions either contained no antibiotic or were supplemented with 50 μM retapamulin or varying concentrations of MKM. The inhibitors of aminoacyl-tRNA synthetases (mupirocin, Gly-AMS (MedChemExpress: Cat. No.: HY-108940), or Arg-AMS (MedChemExpress, Cat. No.: HY-112862)) were added to the final concentrations of 50 μM to stall translation at downstream “catch codons” (Ile, Gly, or Arg, respectively). The gltX template was prepared by amplifying the gltX gene from E. coli BW25113 genomic DNA using the primers T7_gltX_F and gltX_NV1_R (Supplementary Table 6). The yrbA_wt template and its derivatives containing 3-Ser or 3-Thr codons were generated by four-primer PCRs using the primers T7_IR_AUG_F, yrbA_wt_F / yrbA_TTT_F / yrbA_SSS_F, yrbA_wt_R/yrbA_Ile_catch_R, and posT-NV1_R (Supplementary Table 6).
Fluorescently labeled reactions were carried out on the ermBL toeprint mRNA template. The template was generated by PCR of two overlapping 77-nt- and 78-nt-long primers T7_ermBL_F and ermBL_UGA_R (Supplementary Table 6). Reactions were assembled in a 6 μl volume with 30 ng of the ermBL mRNA template and incubated for 15 min at 37 °C. Reverse transcription was carried out using AMV RT and primer NV*1-Alexa 647 (Supplementary Table 6) for 20 min at 37 °C. Reactions were terminated with 1 μl of 5 M NaOH, neutralized with 0.7 μl of 25% HCl, and nucleotide removal was performed with the QIAquick Nucleotide Removal Kit (Qiagen). The samples were dried under vacuum for 2 hours at 60 °C for subsequent gel electrophoresis. The 6% acrylamide gels were scanned on a Typhoon scanner (GE Healthcare). The sequences of all toeprinting templates used in the study can be found in Supplementary Table 7.

SMILES: C[C@@H](O)[C@@H]1NC(=O)[C@@H](CCCNC(=N)N)NC(=O)[C@@H](CCCNC(=N)N)NC(=O)[C@@H](CC(N)=O)NC(=O)[C@@H](NC(=O)[C@@H](Cc2ccccc2)NC(=O)[C@@H](CCCN)NC(=O)[C@H](N)CCCNC(=N)N)[C@@H](C)OC(=O)[C@H](Cc2c[nH]cn2)NC1=O [MKM, manikomycin A] (H-[dR][dOrn][dF]T[dN][dR][dR]TH; ester 4-C)
- ribosome stalling, ermBL mRNA (E. coli in vitro protein synthesis system, ermBL template): ribosomes stall primarily on the third codon; also recorded: stalled the ribosome on the third codon
- ribosome stalling, gltX template (gltX template, Gly-AMS in all reactions): arrested some ribosomes at the start codon, a notable fraction of them became arrested at several specific sites along the mRNA
- ribosome stalling, yrbA-SSS template (yrbA with three Ser codons after start codon, high concentrations of MKM): no ribosomes pass downstream of the start codon
- ribosome stalling, yrbA-TTT template (yrbA with three Thr codons after start codon): a fraction of ribosomes was able to move through the Thr codons
